Results published in paper PMC8877291, “Design and Synthesis of Arylpiperazine Serotonergic/Dopaminergic Ligands with Neuroprotective Properties” (Molecules, 2022).

How the values were obtained:
[1] = biological target: T1, serotonin 5-HT2A receptor (Homo sapiens, UniProt P28223); assay: 5-HT2A receptor radioligand competition binding ([3H]-ketanserin); conditions: human cloned receptor, CHO-K1 membranes, 1 nM [3H]-ketanserin; ± S.E.M., n = 3 in duplicate; read-out: Affinity Ki 5-HT2A
T1 construct: expressed in transfected cells
T1 sequence (P28223 whole entry): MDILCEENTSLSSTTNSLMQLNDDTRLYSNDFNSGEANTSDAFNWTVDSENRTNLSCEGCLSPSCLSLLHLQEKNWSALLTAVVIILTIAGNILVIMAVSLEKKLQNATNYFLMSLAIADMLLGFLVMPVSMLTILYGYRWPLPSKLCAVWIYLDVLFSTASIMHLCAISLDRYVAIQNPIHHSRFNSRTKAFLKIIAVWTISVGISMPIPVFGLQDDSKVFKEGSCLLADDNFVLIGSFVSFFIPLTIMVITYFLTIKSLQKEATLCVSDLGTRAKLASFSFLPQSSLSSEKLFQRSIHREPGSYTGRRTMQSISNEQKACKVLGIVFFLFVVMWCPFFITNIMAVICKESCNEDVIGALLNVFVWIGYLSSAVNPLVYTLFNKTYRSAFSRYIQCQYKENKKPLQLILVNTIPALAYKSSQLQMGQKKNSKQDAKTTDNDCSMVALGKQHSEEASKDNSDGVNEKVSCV

[2] = biological target: T2, dopamine D5 receptor (Homo sapiens, UniProt P21918); assay: Dopamine D5 receptor competition binding ([3H]-SCH23390); conditions: HEK-293 membranes, [3H]-SCH23390 0.3 nM, mean (CI 95%), read-out: Affinity Ki D5
T2 construct: expressed in transfected cells
T2 sequence (P21918 whole entry): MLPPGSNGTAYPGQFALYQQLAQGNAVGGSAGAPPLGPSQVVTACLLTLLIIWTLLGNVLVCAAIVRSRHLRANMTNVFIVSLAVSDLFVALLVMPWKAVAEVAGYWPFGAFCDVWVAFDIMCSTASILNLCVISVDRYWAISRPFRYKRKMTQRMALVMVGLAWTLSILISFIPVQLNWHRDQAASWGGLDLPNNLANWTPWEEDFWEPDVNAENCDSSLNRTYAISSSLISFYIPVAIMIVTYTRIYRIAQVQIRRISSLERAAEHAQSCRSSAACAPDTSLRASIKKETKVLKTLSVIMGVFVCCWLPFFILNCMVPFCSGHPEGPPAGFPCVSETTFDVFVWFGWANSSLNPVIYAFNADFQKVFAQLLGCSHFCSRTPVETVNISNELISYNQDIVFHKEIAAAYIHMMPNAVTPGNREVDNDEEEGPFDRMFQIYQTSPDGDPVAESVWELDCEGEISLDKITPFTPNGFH
Experimental: (§1) The final compounds were tested for their affinity at serotonin 5-HT1A, 5-HT2A, and 5-HT7 receptors and at dopamine D1, D2, D3, and D5 receptors. As a first step, competition radioligand binding assays were carried out for all the compounds at the single concentration of 10 µM, on membrane preparations from stable cell lines heterologously expressing the human cloned 5-HT1A, 5-HT2A, or 5-HT7 receptors. […] For the affinity determination at dopamine receptor subtypes, membrane fractions of human dopamine D2s, D3, D1, and D5 receptor-expressing cells were used. They were co-incubated with [^3H]spiperone (for D2s and D3 receptor) or [^3H]SCH23390 (for D1 and D5 receptor) and appropriate concentrations of test compound for 120 min. Bound radioligand was separated from the free ligand using filtration. Radioactivity was measured by liquid scintillation counting.
(§2) The affinity for dopamine D1 and D5 receptors was evaluated in membrane fractions of HEK-293 cells stably expressing the human dopamine D1 or D5 receptor. HEK-293-D1 cells were cultured in DMEM/F12 (15 mM HEPES, 1.2 g/L NaHCO3) with 10% (v/v) FBS and 1% (v/v) L-glutamine. HEK-293-D5 cells were cultured in DMEM/F12 (with L-glutamine, 1.2 g/L NaHCO3) with 20% (v/v) FBS. Preparation of membrane fractions and radioligand competition assays were performed as previously described. Briefly, membrane fractions were co-incubated with [^3H]-SCH23390 (0.3 nM) and different concentrations of test compound for 120 min at room temperature. Fluphenazine (100 µM) was used to determine non-specific binding and as reference compound.
(§3) Data of at least three independent experiments in triplicate were analyzed using GraphPad Prism 8.1 (San Diego, CA, USA). Binding curves were fitted to a non-linear regression model (one-site competition). Ki values were calculated from IC50 values using the Cheng–Prusoff equation. The statistical calculations were performed on –log(Ki).

[3] = Stability assay in rat liver microsomes; assay type: in vitro ADME; conditions: NADPH-regenerating system; for remaining at 30 min, 10 μM: pH 7.4, rat liver microsomes, 30 min incubation, read-out: Metabolic Stability (percentage of recovery of the parent compound); for in vitro metabolic stability (in words): rat microsomes, 30 min
Experimental: To evaluate the susceptibility to first-pass oxidative metabolism, the leading cause of metabolic degradation in vivo [17] the target compounds were incubated with rat liver microsomes. The turnover of the parent compound was assessed as the percentage of the parent compound recovered after 30 min of incubation with microsomes in the presence of an NADPH-regenerating system.
Test compounds were pre-incubated at 37 °C with rat liver microsomes (Tebu-Bio, Milan, Italy) (1.0 mg/mL microsomal protein) at 10 μM final concentration in 100 mM potassium phosphate buffer (pH 7.4) for 10 min. Metabolic reactions were initiated by the addition of the NADPH regenerating system (containing 10 mM NADP, 50 mM glucose-6-phosphate, and 10 unit/mL glucose-6-phosphate dehydrogenase, final glucose-6-phosphate dehydrogenase concentration, 1 unit/mL). After 30 min incubation, the reaction mixture was quenched by adding an equal volume of cold acetonitrile containing the internal standard. A test compound incubated with microsomes without NADPH regenerating system was included. Quenched samples were centrifuged at 4500 rpm for 15 min and the supernatants were injected for quantification analysis. Samples (100 μL) were analyzed by using an Agilent 1260 Infinity Binary LC System equipped with a diode array detector (Open Lab software was used to analyze the chromatographic data) and a Phenomenex Gemini C-18 column (250 mm × 4.6 mm, 5 μm particle size). The samples were eluted using CH3CN/20 mM ammonium formate pH 5.5 (7:3, v/v) as eluent (volumetric flow rate =1 mL/min). Concentrations were quantified by measuring the area under the peak.
The percentage of the parent compound remaining after a 30-min incubation was calculated according to the equation:% of parent compound remaining after 30 min = Cparent/Ccontrol × 100(1) where Cparent is ligand concentration after incubation with microsome fraction and NADPH regenerating system and Ccontrol is ligand concentration after incubation with microsome fraction only.

[4] = biological target: T3, dopamine D1 receptor (Homo sapiens, UniProt P21728); assay: Dopamine D1 receptor competition binding ([3H]-SCH23390); conditions: HEK-293 membranes, [3H]-SCH23390 0.3 nM, mean (CI 95%), read-out: Affinity Ki D1
T3 construct: expressed in transfected cells
T3 sequence (P21728 whole entry): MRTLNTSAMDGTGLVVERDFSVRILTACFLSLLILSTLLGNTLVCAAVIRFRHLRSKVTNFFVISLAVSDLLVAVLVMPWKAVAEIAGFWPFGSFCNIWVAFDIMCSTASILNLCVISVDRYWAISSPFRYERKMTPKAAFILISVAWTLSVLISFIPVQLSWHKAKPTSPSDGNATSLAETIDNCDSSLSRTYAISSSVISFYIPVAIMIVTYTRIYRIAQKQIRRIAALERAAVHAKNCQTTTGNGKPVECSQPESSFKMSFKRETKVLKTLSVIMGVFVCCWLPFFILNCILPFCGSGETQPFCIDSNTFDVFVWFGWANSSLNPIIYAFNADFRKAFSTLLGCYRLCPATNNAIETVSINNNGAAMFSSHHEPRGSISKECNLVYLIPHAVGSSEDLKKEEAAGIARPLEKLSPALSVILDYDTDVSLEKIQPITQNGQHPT
Experimental: as §1, §2, §3

[5] = Cytotoxicity in SH-SY5Y cells (MTT assay); assay type: cell-based, human; conditions: human, SH-SY5Y neuroblastoma cells, MTT, 0.1 to 100 μM, ± S.E.M.
Experimental: Initially, the cytotoxicity of the target compounds was assessed by treating SH-SY5Y cells for 48 h with various concentrations of compounds (0.1 to 100 μM).
SH-SY5Y neuroblastoma cells (cat. CRL-2266, ATCC) were cultured in a 1:1 mixture of Eagle’s Minimum Essential Medium (cat. 15-010-CVR, Corning) and Ham’s F12 medium (cat. 10-080-CVR, Corning). This medium was supplemented with 10% (v/v) Fetal Bovine Serum (cat. 35-079-CV, Corning), 1% (v/v) Glutamine (cat. ECB3000D, Euro Clone) and 1% (v/v) Penicillin—Streptomycin (cat.30-002-CI, Corning). Cells were cultivated at 37 °C with 5% CO2 at saturated humidity.
Determination of cell growth was performed using the MTT assay at 48 h. On day 1, 25,000 cells/well were seeded into 96-well plates in a volume of 100 μL. On day 2, the various drug concentrations ([…]–100 μM) were added. In all the experiments, the various drug-solvents (EtOH, DMSO) were added in each control to evaluate possible solvent cytotoxicity. After the established incubation time with drugs (48 h), MTT (0.5 mg/mL) was added to each well, and after 3–4 h incubation at 37 °C, the supernatant was removed. The formazan crystals were solubilized using 100 μL of DMSO/EtOH (1:1, v/v) and the absorbance values at 570 and 630 nm were determined on the microplate reader Victor 3 (PerkinElmer Life Sciences, Waltham, MA, USA).

[6] = biological target: dopamine D2s receptor (Homo sapiens, UniProt P14416); assay: Dopamine D2s receptor competition binding ([3H]spiperone)
dopamine D2s receptor, sequence (P14416 1-414 isoform P14416-2): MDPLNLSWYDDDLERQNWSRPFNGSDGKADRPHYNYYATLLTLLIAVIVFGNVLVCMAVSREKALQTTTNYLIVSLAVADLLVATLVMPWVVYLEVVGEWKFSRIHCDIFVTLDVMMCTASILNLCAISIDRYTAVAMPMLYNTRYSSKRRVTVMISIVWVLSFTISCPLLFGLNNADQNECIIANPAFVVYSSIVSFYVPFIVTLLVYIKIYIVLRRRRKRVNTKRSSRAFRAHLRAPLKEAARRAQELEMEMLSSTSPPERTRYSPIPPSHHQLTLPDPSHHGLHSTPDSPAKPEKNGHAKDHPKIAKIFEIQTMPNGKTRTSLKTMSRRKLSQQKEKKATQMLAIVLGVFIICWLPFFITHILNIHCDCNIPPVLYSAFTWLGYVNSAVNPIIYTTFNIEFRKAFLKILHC
Experimental: Competition binding experiments at dopamine D2s and D3 receptor were performed to determine the affinity of the compounds. […] Membrane preparations of transfected CHO-K1 cells stably expressing the human D2s or D3 receptor were performed according to Bautista-Aguilera et al. [26]. The competition binding experiments were conducted as previously reported [26, 27]. Briefly, membrane fractions (D2sR: 25 µg/200 µL; D3R: 20 µg/200 µL) were incubated with [^3H]spiperone (0.2 nM) and test compound for 120 min at room temperature. […] Non-specific binding was determined in the presence of 10 µM haloperidol. Haloperidol was also used as reference compound. Separation of the bound ligand from the free ligand was conducted by filtration through GF/B filters using deionized water.

Row | Compound | Ki [1] [nM] | Ki [2] [nM] | remaining at 30 min, 10 μM [3] [%] | Ki [4] [nM] | EC50 at 48 h [5] [nM] | Ki [6] [nM] | in vitro metabolic stability (in words) [3]
1 | CC1Oc2ccc(OCCCN3CCN(c4ncccc4-c4ccncc4)CC3)cc2NC1=O (centres unmarked) [Compound 8a, 6-(3-(4-([3,4’-Bipyridin]-2-yl)piperazin-1-yl)propoxy)-2-methyl-2H-benzo[b][1,4]oxazin-3(4H)-one] | 782 ± 119 | 7410 | 4 | 6290 | 32900 ± 3500 | 388 | 
2 | CC1Oc2ccc(OCCCCN3CCN(c4ncccc4-c4ccncc4)CC3)cc2NC1=O (centres unmarked) [Compound 8b, 6-(4-(4-([3,4’-Bipyridin]-2-yl)piperazin-1-yl)butoxy)-2-methyl-2H-benzo[b][1,4]oxazin-3(4H)-one] | 611 ± 87 | 8200 | 14 | 1710 | 25500 ± 2200 | 9.08 | 
3 | COc1ccc(-c2cc(F)ccc2N2CCN(CCCCn3ncc(=O)n(C)c3=O)CC2)cc1 [Compound 9b, 2-(4-(4-(5-Fluoro-4’-methoxy-[1,1’-biphenyl]-2-yl)piperazin-1-yl)butyl)-4-methyl-1,2,4-triazine-3,5(2H,4H)-dione] | 39.4 ± 7.4 | 222 | 45 | 88.3 | 51900 ± 4300 | > 10000 | 
4 | Cn1c(=O)cnn(CCCN2CCN(c3ccc(F)cc3-c3ccc(C#N)cc3)CC2)c1=O [Compound 10a, 5’-Fluoro-2’-(4-(3-(4-methyl-3,5-dioxo-4,5-dihydro-1,2,4-triazin-2(3H)-yl)propyl)piperazin-1-yl)-[1,1’-biphenyl]-4-carbonitrile] | 96.8 ± 11 | 180 | 5 | 104 | 28200 ± 3200 | > 10000 | 
5 | Cn1c(=O)cnn(CCCCN2CCN(c3ccc(F)cc3-c3ccc(C#N)cc3)CC2)c1=O [Compound 10b, 5’-Fluoro-2’-(4-(4-(4-methyl-3,5-dioxo-4,5-dihydro-1,2,4-triazin-2(3H)-yl)butyl)piperazin-1-yl)-[1,1’-biphenyl]-4-carbonitrile] | 80.7 ± 3.1 | 101 | 26 | 140 | 34300 ± 2500 | > 10000 | borderline stability value
6 | Cn1c(=O)cnn(CCCN2CCN(c3ncccc3-c3ccncc3)CC2)c1=O [Compound 11a, 2-(3-(4-([3,4’-Bipyridin]-2-yl)piperazin-1-yl)propyl)-4-methyl-1,2,4-triazine-3,5(2H,4H)-dione] | > 10000 | > 10000 | 4 | > 10000 | > 100000 | > 10000 | 
7 | Cn1c(=O)cnn(CCCCN2CCN(c3ncccc3-c3ccncc3)CC2)c1=O [Compound 11b, 2-(4-(4-([3,4’-Bipyridin]-2-yl)piperazin-1-yl)butyl)-4-methyl-1,2,4-triazine-3,5(2H,4H)-dione] | > 10000 | > 10000 | 3 | > 10000 | > 100000 | > 10000 | 
8 | Cc1cc(=O)oc2cc(OCCCN3CCN(c4ncccc4-c4ccncc4)CC3)ccc12 [Compound 12a, 7-(3-(4-([3,4’-Bipyridin]-2-yl)piperazin-1-yl)propoxy)-4-methyl-2H-chromen-2-one] | 315 ± 44 | > 10000 | 19 | 2200 | 35200 ± 4100 | 300 | borderline stability value
9 | Cc1cc(=O)oc2cc(OCCCCN3CCN(c4ncccc4-c4ccncc4)CC3)ccc12 [Compound 12b, 7-(4-(4-([3,4’-Bipyridin]-2-yl)piperazin-1-yl)butoxy)-4-methyl-2H-chromen-2-one] | ~1420 | 2730 | 14 | 1530 | 47900 ± 3500 | 17 | 
